33 compounds from patent publication US9376418B2, “Substituted pyridine spleen tyrosine kinase (SYK) inhibitors” (Merck Sharp & Dohme Corp., priority 2012, dated 2016) can be followed below.

The test concerns the target T1, recombinant human GST-SYK (Homo sapiens, UniProt P43405).
T1 construct: purchased Carna Biosciences 08-176
In words: Homogeneous Time-Resolved Fluorescence (HTRF) assay for the recombinant human Syk enzyme. The class given is biochemical. The settings on record: HTRF assay, recombinant human GST-SYK; IC50 given as class symbols; read-out: rhSYK Activity. The procedure, abridged: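 HTRF read-out: Europium-anti-phosphotyrosine antibody (2 nM) plus SA-APC (70 nM) in EDTA-containing buffer quenched the reaction, and signal was read after 30 minutes. Kinase step used […], 250 nM biotinylated peptide, 25 μM ATP, 5 mM Mg, 45′ at room temperature.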
(In general: TR-FRET usually uses a lanthanide donor and a delayed reading to cut background.)
As for `Cc1cc(Nc2nccc(C(F)(F)F)n2)cc(-c2ccc(N[C@H](Cc3csc4ccccc34)C(=O)O)nc2)c1` [Example 7.79, 3-(1-benzothiophen-3-yl)-N-[5-(3-methyl-5-{[4-(trifluoromethyl)pyrimidin-2-yl]amino}phenyl)pyridin-2-yl]-D-alanine], the IC50 is under 100 nM.
For the compound `Cc1cc(Nc2nccc(C(F)(F)F)n2)cc(-c2ccc(NC3(C(=O)O)CCCC3)nc2)c1` [Example 7.80, 1-{[5-(3-methyl-5-{[4-(trifluoromethyl)pyrimidin-2-yl]amino}phenyl)pyridin-2-yl]amino}cyclopentanecarboxylic acid], the IC50 was under 100 nM.
Take `Cc1cc(Nc2nccc(C(F)(F)F)n2)cc(-c2ccc(NC3(C(=O)O)CC3)nc2)c1` [Example 7.81, 1-{[5-(3-methyl-5-{[4-(trifluoromethyl)pyrimidin-2-yl]amino}phenyl)pyridin-2-yl]amino}cyclopropanecarboxylic acid]: the IC50 was 100 to 1000 nM.
With `Cc1cc(Nc2nccc(C(F)(F)F)n2)cc(-c2ccc(N3CCC3C(=O)O)nc2)c1` (stereo not drawn) [Example 7.82, 1-[5-(3-methyl-5-{[4-(trifluoromethyl)pyrimidin-2-yl]amino}phenyl)pyridin-2-yl]azetidine-2-carboxylic acid], the IC50 is under 100 nM.
`Cc1cc(Nc2nccc(C(F)(F)F)n2)cc(-c2ccc(N3CCC[C@H]3C(=O)NCC(=O)O)nc2)c1` [Example 7.83, 1-[5-(3-methyl-5-{[4-(trifluoromethyl)pyrimidin-2-yl]amino}phenyl)pyridin-2-yl]-L-prolylglycine]: the IC50 is under 100 nM.
The figure for `Cc1cc(Nc2nccc(C(F)(F)F)n2)cc(-c2ccc(N3CCC[C@H]3C(=O)O)nc2)c1` [Example 7.84, 1-[5-(3-methyl-5-{[4-(trifluoromethyl)pyrimidin-2-yl]amino}phenyl)pyridin-2-yl]-L-proline] is under 100 nM; for `Cc1cc(Nc2nccc(C(F)(F)F)n2)cc(-c2ccc(N3CCCC[C@@H]3C(=O)O)nc2)c1` [Example 7.85, (2R)-1-[5-(3-methyl-5-{[4-(trifluoromethyl)pyrimidin-2-yl]amino}phenyl)pyridin-2-yl]piperidine-2-carboxylic acid] it is under 100 nM.
The value for `Cc1cc(Nc2nccc(C(F)(F)F)n2)cc(-c2ccc(N[C@@H](C)C(=O)O)nc2)c1` [Example 7.86, N-[5-(3-methyl-5-{[4-(trifluoromethyl)pyrimidin-2-yl]amino}phenyl)pyridin-2-yl]-L-alanine] was under 100 nM; that for `Cc1cc(Nc2nccc(C(F)(F)F)n2)cc(-c2ccc(NCC(=O)O)nc2)c1` [Example 7.87, N-[5-(3-methyl-5-{[4-(trifluoromethyl)pyrimidin-2-yl]amino}phenyl)pyridin-2-yl]glycine] was under 100 nM.
The value for `Cc1cc(Nc2nccc(C(F)(F)F)n2)cc(-c2ccc(NCCC(=O)O)nc2)c1` [Example 7.88, N-[5-(3-methyl-5-{[4-(trifluoromethyl)pyrimidin-2-yl]amino}phenyl)pyridin-2-yl]-beta-alanine] was under 100 nM.
Turning to `Cc1cc(Nc2nccc(C(F)(F)F)n2)cc(-c2ccc(N[C@H](C)C(=O)O)nc2)c1` [Example 7.89, N-[5-(3-methyl-5-{[4-(trifluoromethyl)pyrimidin-2-yl]amino}phenyl)pyridin-2-yl]-D-alanine], the IC50 was under 100 nM.
The figure for `Cc1cc(Nc2nccc(C(F)(F)F)n2)cc(-c2ccc(N[C@@H](C(=O)O)C(C)C)nc2)c1` [Example 7.90, N-[5-(3-methyl-5-{[4-(trifluoromethyl)pyrimidin-2-yl]amino}phenyl)pyridin-2-yl]-D-valine] is under 100 nM.
For the compound `Cc1cc(Nc2nccc(C(F)(F)F)n2)cc(-c2ccc(N[C@H](C(=O)O)C(C)C)nc2)c1` [Example 7.91, N-[5-(3-methyl-5-{[4-(trifluoromethyl)pyrimidin-2-yl]amino}phenyl)pyridin-2-yl]-L-valine], the IC50 was under 100 nM.
The figure for `Cc1cc(Nc2nccc(C(F)(F)F)n2)cc(-c2ccc(N[C@H](C(=O)O)[C@@H](C)O)nc2)c1` [Example 7.92, N-[5-(3-methyl-5-{[4-(trifluoromethyl)pyrimidin-2-yl]amino}phenyl)pyridin-2-yl]-L-threonine] is under 100 nM; for `Cc1cc(Nc2nccc(C(F)(F)F)n2)cc(-c2ccc(N[C@H](CC(N)=O)C(=O)O)nc2)c1` [Example 7.93, N~2~-[5-(3-methyl-5-{[4-(trifluoromethyl)pyrimidin-2-yl]amino}phenyl)pyridin-2-yl]-D-asparagine] it is under 100 nM.
On to `Cc1cc(Nc2nccc(C(F)(F)F)n2)cc(-c2ccc(N[C@@H](CC(N)=O)C(=O)O)nc2)c1` [Example 7.94, N~2~-[5-(3-methyl-5-{[4-(trifluoromethyl)pyrimidin-2-yl]amino}phenyl)pyridin-2-yl]-L-asparagine], for which the IC50 was under 100 nM.
The value for `CSCC[C@H](Nc1ccc(-c2cc(C)cc(Nc3nccc(C(F)(F)F)n3)c2)cn1)C(=O)O` [Example 7.95, N-[5-(3-methyl-5-{[4-(trifluoromethyl)pyrimidin-2-yl]amino}phenyl)pyridin-2-yl]-L-methionine] was under 100 nM; that for `Cc1cc(Nc2nccc(C(F)(F)F)n2)cc(-c2ccc(N[C@H](Cc3ccccc3)C(=O)O)nc2)c1` [Example 7.96, N-[5-(3-methyl-5-{[4-(trifluoromethyl)pyrimidin-2-yl]amino}phenyl)pyridin-2-yl]-D-phenylalanine] was under 100 nM.
The value for `Cc1cc(Nc2nccc(C(F)(F)F)n2)cc(-c2ccc(N[C@@H](Cc3ccccc3)C(=O)O)nc2)c1` [Example 7.97, N-[5-(3-methyl-5-{[4-(trifluoromethyl)pyrimidin-2-yl]amino}phenyl)pyridin-2-yl]-L-phenylalanine] was under 100 nM; that for `Cc1cc(Nc2nccc(C(F)(F)F)n2)cc(-c2ccc(N[C@@H](Cc3ccc(O)cc3)C(=O)O)nc2)c1` [Example 7.98, N-[5-(3-methyl-5-{[4-(trifluoromethyl)pyrimidin-2-yl]amino}phenyl)pyridin-2-yl]-L-tyrosine] was under 100 nM; that for `Cc1cc(Nc2nccc(C(F)(F)F)n2)cc(-c2ccc(N[C@H](Cc3c[nH]c4ccccc34)C(=O)O)nc2)c1` [Example 7.99, N-[5-(3-methyl-5-{[4-(trifluoromethyl)pyrimidin-2-yl]amino}phenyl)pyridin-2-yl]-D-tryptophan] was under 100 nM.
For `Cc1cc(Nc2nccc(C(F)(F)F)n2)cc(-c2ccc(N[C@@H](Cc3c[nH]c4ccccc34)C(=O)O)nc2)c1` [Example 7.100, N-[5-(3-methyl-5-{[4-(trifluoromethyl)pyrimidin-2-yl]amino}phenyl)pyridin-2-yl]-L-tryptophan], the IC50 is under 100 nM.
The value for `CC[C@@H](C)[C@@H](Nc1ccc(-c2cc(C)cc(Nc3nccc(C(F)(F)F)n3)c2)cn1)C(=O)O` [Example 7.101, N-[5-(3-methyl-5-{[4-(trifluoromethyl)pyrimidin-2-yl]amino}phenyl)pyridin-2-yl]-D-isoleucine] was under 100 nM.
The value for `Cc1cc(Nc2nccc(C(F)(F)F)n2)cc(-c2ccc(NCCCC(=O)O)nc2)c1` [Example 7.102, 4-{[5-(3-methyl-5-{[4-(trifluoromethyl)pyrimidin-2-yl]amino}phenyl)pyridin-2-yl]amino}butanoic acid] was under 100 nM; that for `CC[C@H](Nc1ccc(-c2cc(C)cc(Nc3nccc(C(F)(F)F)n3)c2)cn1)C(=O)O` [Example 7.103, (2S)-2-{[5-(3-methyl-5-{[4-(trifluoromethyl)pyrimidin-2-yl]amino}phenyl)pyridin-2-yl]amino}butanoic acid] was under 100 nM.
The value for `Cc1cc(Nc2nccc(C(F)(F)F)n2)cc(-c2ccc(N(C)[C@@H](C)C(=O)O)nc2)c1` [Example 7.104, N-methyl-N-[5-(3-methyl-5-{[4-(trifluoromethyl)pyrimidin-2-yl]amino}phenyl)pyridin-2-yl]-L-alanine] was under 100 nM; that for `Cc1cc(Nc2nccc(C(F)(F)F)n2)cc(-c2ccc(N3C[C@H](O)C[C@H]3C(=O)O)nc2)c1` [Example 7.105, (4R)-4-hydroxy-1-[5-(3-methyl-5-{[4-(trifluoromethyl)pyrimidin-2-yl]amino}phenyl)pyridin-2-yl]-L-proline] was under 100 nM.
For `Cc1cc(Nc2nccc(C(F)(F)F)n2)cc(-c2ccc(N[C@H](C(=O)O)C(C)(C)C)nc2)c1` [Example 7.106, 3-methyl-N-[5-(3-methyl-5-{[4-(trifluoromethyl)pyrimidin-2-yl]amino}phenyl)pyridin-2-yl]-L-valine], the IC50 was under 100 nM.
For `CCC[C@@H](Nc1ccc(-c2cc(C)cc(Nc3nccc(C(F)(F)F)n3)c2)cn1)C(=O)O` [Example 7.107, N-[5-(3-methyl-5-{[4-(trifluoromethyl)pyrimidin-2-yl]amino}phenyl)pyridin-2-yl]-D-norvaline], the IC50 is under 100 nM.
The figure for `Cc1cc(Nc2nccc(C(F)(F)F)n2)cc(-c2ccc(N[C@H](CO)C(=O)O)nc2)c1` [Example 7.108, N-[5-(3-methyl-5-{[4-(trifluoromethyl)pyrimidin-2-yl]amino}phenyl)pyridin-2-yl]-D-serine] is under 100 nM.
As for `Cc1cc(Nc2nccc(C(F)(F)F)n2)cc(-c2ccc(N[C@@H](CO)C(=O)O)nc2)c1` [Example 7.109, N-[5-(3-methyl-5-{[4-(trifluoromethyl)pyrimidin-2-yl]amino}phenyl)pyridin-2-yl]-L-serine], the IC50 was under 100 nM.
Take `Cc1cc(Nc2nccc(C(F)(F)F)n2)cc(-c2ccc(N3CCC[C@@H]3C(=O)O)nc2)c1` [Example 7.110, 1-[5-(3-methyl-5-{[4-(trifluoromethyl)pyrimidin-2-yl]amino}phenyl)pyridin-2-yl]-D-prolilne]: the IC50 was under 100 nM.
In the case of `Cc1cc(Nc2nccc(C(F)(F)F)n2)cc(-c2ccc(N[C@@H](CC(C)C)C(=O)O)nc2)c1` [Example 7.111, N-[5-(3-methyl-5-{[4-(trifluoromethyl)pyrimidin-2-yl]amino}phenyl)pyridin-2-yl]-L-leucine], the IC50 is under 100 nM.
